Patent US20020061924A1, “Agent containing tocotrienol for drug” (priority 2000, published 2002)

Tests used:
[1] = test system: human erythrocyte membrane; experiment: Reactivity with AAPH radicals on human erythrocyte membrane (residual rate); format: cell-based; conditions: for Residual Rate (%) 1 hr. / Residual Rate (%) 2 hrs. / Residual Rate (%) 3 hrs.: 10% erythrocyte suspension, 75 mM AAPH, 37° C.; for Residual Rate (%) 1 hr.: after 1 hour; for Residual Rate (%) 2 hrs.: after 2 hours; for Residual Rate (%) 3 hrs.: after 3 hours
Procedure: Human erythrocytes to be tested were prepared from blood of a healthy person by treating the blood according the method disclosed in Lipids, vol. 33 (6), p589-595 (1998). Actually, blood drawn from a healthy person was put in a test tube containing EDTA-2Na (1 mg/ml), and certrifuged at 1000×g at 4° C. for 20 minutes to be separated into erythrocytes and plasma. The erythrocytes were washed three times with 5 parts by volume of phosphate-buffered saline (PBS), and centrifuged exactly at 1000×g for 20 minutes to obtain a definite volume of packed erythrocytes.
The erythrocytes were subjected to hemolysis test according to the method of Miki et al., Arch. Biochem. Biophys. 258, p373-380. 0.5 ml of the human erythrocytes were suspended into 4 parts by volume of PBS, and a-tocotrienol ethanol solution was added thereto wherein the final ethanol concentration was made 0.5% (v/v) or less. After incubating the mixture at 37° C. for 30 minutes, the erythrocytes were washed. 10% suspension of the erythrocytes was incubated again. To the suspension, 75 mM AAPH-PBS solution was added, and oxidation was carried out at 37° C. in a dark place with stirring. The state of erythrocyte membrane, which was destroyed by radicals to induce hemolysis, was observed.
Similarly, the human erythrocytes were incubated with α-tocopherol for 30 minutes, washed, and 10% suspension of the erythrocytes was incubated again. To the suspension, 75 mM AAPH was added, and the state of erythrocyte membrane, which was destroyed by radicals to induce hemolysis, was observed.
Reactivity of α-tocotrienol and α-tocopherol with radicals on human erythrocyte membrane was examined, and residual rate of α-tocotrienol and α-tocopherol in solution was measured after 1, 2 and 3 hours.

Human erythrocytes = experiment: Deformability of erythrocytes by Micro-Channel Array Flow Analyzer (MC-FAN); format: cell-based; conditions: for Passage Time: Table 1, control 54 ± 3; for Ratio to Control: passage time relative to control (1.00)
Procedure: Deformability of erythrocytes was measured using a Micro-Channel Array Flow Analyzer (MC-FAN) illustrated in FIG. 3 which measures time for passing total volume of an erythrocyte (8-10 μm) through a pore (6 μm) of a microchip.
Human erythrocytes were incubated with 43.3 μM α-tocotrienol for 30 minutes to incorporate the α-tocotrienol into the erythrocytes, and deformability of the erythrocytes was measured by the MC-FAN. As a control sample, human erythrocytes without α-tocotrienol were prepared, and the deformability was also measured.
In comparison, human erythrocytes were incubated with 40 μM α-tocopherol (vitamin E, Tokyo Kasei Kogyo) for 30 minutes to incorporate the α-tocopherol into the erythrocytes, and deformability of the erythrocytes was measured by the MC-FAN. As a result, passage time of the erythrocyte with a -tocopherol was 36 sec/ 100 μl RBC.

[2] = test system: hemolysis by dialuric acid; conditions: amount relative to comparator; cited from earlier work
[3] = Antioxidant action on monolayer liposome (iron-ascorbic acid, AAPH, lipoxigenase systems); conditions: tocotrienol compared with tocopherol
Procedure: (§1) Strength of antioxidant action of tocotrienol and tocopherol on monolayer liposome and erythrocyte membrane was evaluated by using iron-ascorbic acid, 2, 2′-azobis (2-amidinopropane).2HCl (AAPH) which is a water-soluble radical generator and lipoxigenase reaction system.

erythrocyte membrane = experiment: Antioxidant action on erythrocyte membrane (iron-ascorbic acid, AAPH, lipoxigenase systems); format: cell-based; conditions: tocotrienol compared with tocopherol
Procedure: as §1

Compound	Residual Rate (%) 1 hr. [1] [%]	Residual Rate (%) 2 hrs. [1] [%]	Residual Rate (%) 3 hrs. [1] [%]	Passage Time (Human erythrocytes) [sec/100 μ1 RBC]	passage time of the erythrocyte (Human erythrocytes; incubated with 43.3 μM for 30 minutes, without compound 54)	Ratio to Control (Human erythrocytes)	inhibition of hemolysis by dialuric acid [2]	strength of antioxidant action on monolayer liposome [3]	incorporation (reaction rate with radicals) relative to tocopherol ([1]; from residual rates on human erythrocyte membrane)	strength of antioxidant action on erythrocyte membrane (erythrocyte membrane)	ability of improving the deformability of erythrocytes (Human erythrocytes; comparison of tocotrienol with tocopherol)	passage time of the erythrocyte (Human erythrocytes; incubated with 40 μM for 30 minutes) [sec/ 100 μl RBC]
CC(C)=CCC/C(C)=C/CC/C(C)=C/CC[C@]1(C)CCc2c(C)c(O)c(C)c(C)c2O1 [α-tocotrienol]	12 ± 2	7 ± 1	4 ± 1	26 ± 5	26 sec/100 μl erythrocyte (RBC)	0.47	inhibit hemolysis by dialuric acid even in an amount of one third	–	–	–	–	–
tocopherol [reference compound]	–	–	–	–	–	–	–	difference in the strength of antioxidant action on monolayer liposome was not found	–	–	–	–
tocotrienol	–	–	–	–	–	–	–	difference in the strength of antioxidant action on monolayer liposome was not found	about three to four times as much as that of tocopherol	much greater than that of tocopherol	more excellent than tocopherol	–
Cc1c(C)c2c(c(C)c1O)CC[C@@](C)(CCC[C@H](C)CCC[C@H](C)CCCC(C)C)O2 [α-tocopherol, reference compound]	41 ± 3	25 ± 4	19 ± 3	34 ± 5	–	0.63	–	–	–	–	–	36
